Test results published in patent US10913738B2 (BRISTOL-MYERS SQUIBB COMPANY, priority 2017, dated 2021).
Where two headings read alike, the source gives them in different places.

What was measured:
[1] = molecular target: T1, His-GST-TVMV-hRIPK1(1-324) (Homo sapiens, UniProt Q13546); assay: RIPK1 HTRF Binding Assay
T1 construct: The coding region of human RIPK1(1-324) flanked by NdeI site at 5′ end; made in house; host or cells: Spodoptera frugiperda (Sf9) insect cells, baculovirus
T1 sequence (Q13546 1-324): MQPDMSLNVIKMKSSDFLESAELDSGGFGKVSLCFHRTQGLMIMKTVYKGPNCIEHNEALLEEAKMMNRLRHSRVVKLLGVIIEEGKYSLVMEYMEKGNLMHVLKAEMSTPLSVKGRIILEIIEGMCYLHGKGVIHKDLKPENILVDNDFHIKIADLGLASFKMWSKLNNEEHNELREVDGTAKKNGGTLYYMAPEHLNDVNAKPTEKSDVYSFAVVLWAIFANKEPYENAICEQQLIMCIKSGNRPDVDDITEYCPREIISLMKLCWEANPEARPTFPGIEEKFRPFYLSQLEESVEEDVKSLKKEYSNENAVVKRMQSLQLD

[2] = test system: MLKL phosphorylation in HT29-L23 human colorectal adenocarcinoma cells; assay: MLKL Phosphorylation High-Content Assay; format: cell-based; conditions: Homo sapiens
Outline: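 Cells incubated six hours at 37° C., then phospho-MLKL (S358) immunostained overnight at 4° C. and imaged by high-content microscopy. Phosphorylation quantified as mean circ-ring average intensity ratio; IC50 and Ymax from 4-parameter logistic fits.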

[3] = x marks IC50 class <20 nM, read-out: RIPK1 HTRF binding <20 nM
[4] = x marks IC50 class <20 nM, read-out: pMLKL cell activity <20 nM
[5] = x marks IC50 class 20-200 nM, read-out: pMLKL cell activity 20-200 nM
[6] = x marks IC50 class 20-200 nM, read-out: RIPK1 HTRF binding 20-200 nM
[7] = x marks IC50 class >200 nM, read-out: pMLKL cell activity >200 nM

| SMILES | IC50 [1, 3] [nM] | IC50 [2, 5] [nM] | IC50 [1, 6] [nM] | IC50 [2, 7] [nM] | further results |
| --- | --- | --- | --- | --- | --- |
| [2H]C([2H])([2H])[C@H](NC(=O)c1cc(-c2ccn3nc(N)nc3c2)cnc1C)c1cc(OC(F)(F)F)ccc1F [Example 300, (S)-5-(2-amino-[1,2,4]triazolo[1,5-a]pyridin-7-yl)-N-(1-(2-fluoro-5-(trifluoromethoxy)phenyl)ethyl-2,2,2-H3)-2-methylnicotinamide] | < 20 | – | – | – | IC50 [2, 4]: < 20 nM |
| Cc1ncc(-c2ccn3nc(N)nc3c2)cc1C(=O)NCc1cc(F)cc(F)c1OCC(C)C [Example 301, 5-(2-amino-[1,2,4]triazolo[1,5-a]pyridin-7-yl)-N-(3,5-difluoro-2-isobutoxybenzyl)-2-methylnicotinamide] | < 20 | 20 to 200 | – | – | – |
| [2H]C([2H])([2H])[C@H](NC(=O)c1cc(-c2ccn3nc(N)nc3c2)cnc1C)c1cc(C(F)(F)F)ccc1F [Example 302, (S)-5-(2-amino-[1,2,4]triazolo[1,5-a]pyridin-7-yl)-N-(1-(2-fluoro-5-(trifluoromethyl)phenyl)ethyl-2,2,2-H3)-2-methylnicotinamide] | < 20 | 20 to 200 | – | – | – |
| [2H]C([2H])([2H])[C@@H](NC(=O)c1cc(-c2ccn3nc(N)nc3c2)cnc1C)c1cc(C(F)(F)F)ccc1F [Example 303, (R)-5-(2-amino-[1,2,4]triazolo[1,5-a]pyridin-7-yl)-N-(1-(2-fluoro-5-(trifluoromethyl)phenyl)ethyl-2,2,2-H3)-2-methylnicotinamide] | < 20 | 20 to 200 | – | – | – |
| Cc1ncc(-c2ccn3nc(N)nc3c2)cc1C(=O)NCc1c(OCC2CC2)ccc(F)c1F [Example 304, 5-(2-amino-[1,2,4]triazolo[1,5-a]pyridin-7-yl)-N-(6-(cyclopropylmethoxy)-2,3-difluorobenzyl)-2-methylnicotinamide] | < 20 | 20 to 200 | – | – | – |
| Cc1ncc(-c2ccn3nc(N)nc3c2)cc1C(=O)NCc1ccccc1OCC(C)C [Example 305, 5-(2-amino-[1,2,4]triazolo[1,5-a]pyridin-7-yl)-N-(2-isobutoxybenzyl)-2-methylnicotinamide] | – | 20 to 200 | 20 to 200 | – | – |
| Cc1ncc(-c2ccn3nc(N)nc3c2)cc1C(=O)NCc1c(F)cccc1OCC(F)(F)F [Example 306, 5-(2-amino-[1,2,4]triazolo[1,5-a]pyridin-7-yl)-N-(2-fluoro-6-(2,2,2-trifluoroethoxy)benzyl)-2-methylnicotinamide] | – | 20 to 200 | 20 to 200 | – | – |
| [2H]C([2H])(NC(=O)c1cc(-c2ccn3nc(N)nc3c2)cnc1C)c1cc(C(F)(F)F)ccc1F [Example 307, 5-(2-amino-[1,2,4]triazolo[1,5-a]pyridin-7-yl)-N-((2-fluoro-5-(trifluoromethyl)phenyl)methyl-H2)-2-methylnicotinamide] | < 20 | 20 to 200 | – | – | – |
| Cc1ncc(-c2ccn3nc(N)nc3c2)cc1C(=O)NCc1cc(F)cc(F)c1OC1CC1 [Example 308, 5-(2-amino-[1,2,4]triazolo[1,5-a]pyridin-7-yl)-N-(2-cyclopropoxy-3,5-difluorobenzyl)-2-methylnicotinamide] | – | 20 to 200 | 20 to 200 | – | – |
| Cc1ncc(-c2ccn3nc(N)nc3c2)cc1C(=O)NCc1cc(F)ccc1OCC(F)(F)F [Example 309, 5-(2-amino-[1,2,4]triazolo[1,5-a]pyridin-7-yl)-N-(5-fluoro-2-(2,2,2-trifluoroethoxy)benzyl)-2-methylnicotinamide] | < 20 | – | – | > 200 | – |
| [2H]C([2H])([2H])[C@H](NC(=O)c1cc(-c2ccn3nc(N)nc3c2)cnc1C)c1cccc(OC(F)(F)F)c1 [Example 310, (S)-5-(2-amino-[1,2,4]triazolo[1,5-a]pyridin-7-yl)-2-methyl-N-(1-(3-(trifluoromethoxy)phenyl)ethyl-2,2,2-H3)nicotinamide] | – | – | 20 to 200 | > 200 | – |
| [2H]C([2H])([2H])[C@@H](NC(=O)c1cc(-c2ccn3nc(N)nc3c2)cnc1C)c1cccc(OC(F)(F)F)c1 [Example 311, (R)-5-(2-amino-[1,2,4]triazolo[1,5-a]pyridin-7-yl)-2-methyl-N-(1-(3-(trifluoromethoxy)phenyl)ethyl-2,2,2-H3)nicotinamide] | – | – | 20 to 200 | > 200 | – |
| Cc1ncc(-c2ccn3nc(N)nc3c2)cc1C(=O)NCc1ccccc1OCC(F)(F)F [Example 312, 5-(2-amino-[1,2,4]triazolo[1,5-a]pyridin-7-yl)-2-methyl-N-(2-(2,2,2-trifluoroethoxy)benzyl)nicotinamide] | – | – | 20 to 200 | > 200 | – |
| Cc1ncc(-c2ccn3nc(N)nc3c2)cc1C(=O)NCc1cccc(OCC(F)(F)F)c1 [Example 313, 5-(2-amino-[1,2,4]triazolo[1,5-a]pyridin-7-yl)-2-methyl-N-(3-(2,2,2-trifluoroethoxy)benzyl)nicotinamide] | – | – | 20 to 200 | > 200 | – |
| Cc1ncc(-c2ccn3nc(N)nc3c2)cc1C(=O)NCc1cc(F)cc(F)c1OC1CCCOC1 (stereo not shown) [Example 314, 5-(2-amino-[1,2,4]triazolo[1,5-a]pyridin-7-yl)-N-(3,5-difluoro-2-((tetrahydro-2H-pyran-3-yl)oxy)benzyl)-2-methylnicotinamide] | – | 20 to 200 | 20 to 200 | – | – |
| Cc1ncc(-c2ccn3nc(N)nc3c2)cc1C(=O)NCc1cc(F)cc(F)c1OC1CC(C)OC(C)C1 (stereo not shown) [Example 315, 5-(2-amino-[1,2,4]triazolo[1,5-a]pyridin-7-yl)-N-(2-((2,6-dimethyltetrahydro-2H-pyran-4-yl)oxy)-3,5-difluorobenzyl)-2-methylnicotinamide] | – | 20 to 200 | 20 to 200 | – | – |
| Cc1ncc(-c2ccn3nc(N)nc3c2)cc1C(=O)NCc1cc(F)cc(F)c1OC1CCOC(C)C1 (stereo not shown) [Example 316, 5-(2-amino-[1,2,4]triazolo[1,5-a]pyridin-7-yl)-N-(3,5-difluoro-2-((2-methyltetrahydro-2H-pyran-4-yl)oxy)benzyl)-2-methylnicotinamide] | – | – | 20 to 200 | > 200 | – |
| Cc1ncc(-c2ccn3nc(N)nc3c2)cc1C(=O)NCc1cc(F)cc(F)c1OC1CCOC1 (stereo not shown) [Example 317, 5-(2-amino-[1,2,4]triazolo[1,5-a]pyridin-7-yl)-N-(3,5-difluoro-2-((tetrahydrofuran-3-yl)oxy)benzyl)-2-methylnicotinamide] | – | – | 20 to 200 | > 200 | – |
| Cc1ncc(-c2ccn3nc(N)nc3c2)cc1C(=O)N(C)[C@H](C)c1cc(OC(F)(F)F)ccc1F [Example 318, (R)-5-(2-amino-[1,2,4]triazolo[1,5-a]pyridin-7-yl)-N-(1-(2-fluoro-5-(trifluoromethoxy)phenyl)ethyl)-N,2-dimethylnicotinamide] | – | 20 to 200 | – | – | IC50 ([1]; x marks IC50 class >200 nM, read-out: RIPK1 HTRF binding >200 nM): > 200 nM |
| CCc1ncc(-c2ccn3nc(N)nc3c2)cc1C(=O)N[C@H](C)c1cc(OC(F)(F)F)ccc1F [Example 320, (R)-5-(2-amino-[1,2,4]triazolo[1,5-a]pyridin-7-yl)-2-ethyl-N-(1-(2-fluoro-5-(trifluoromethoxy)phenyl)ethyl)nicotinamide] | – | – | 20 to 200 | – | IC50 [2, 4]: < 20 nM |
| CCc1ncc(-c2ccn3nc(N)nc3c2)cc1C(=O)N[C@@H](C)c1cc(OC(F)(F)F)ccc1F [Example 321, (S)-5-(2-amino-[1,2,4]triazolo[1,5-a]pyridin-7-yl)-2-ethyl-N-(1-(2-fluoro-5-(trifluoromethoxy)phenyl)ethyl)nicotinamide] | – | 20 to 200 | 20 to 200 | – | – |
| CCc1ncc(-c2ccn3nc(N)nc3c2)cc1C(=O)NCc1cc(C(F)(F)F)ccc1F [Example 322, 5-(2-amino-[1,2,4]triazolo[1,5-a]pyridin-7-yl)-2-ethyl-N-(2-fluoro-5-(trifluoromethyl)benzyl)nicotinamide] | – | 20 to 200 | 20 to 200 | – | – |
| Cc1nc(Cl)c(C(=O)N[C@H](C)c2cc(OC(F)(F)F)ccc2F)cc1-c1ccn2nc(N)nc2c1 [Example 323, (R)-5-(2-amino-[1,2,4]triazolo[1,5-a]pyridin-7-yl)-2-chloro-N-(1-(2-fluoro-5-(trifluoromethoxy)phenyl)ethyl)-6-methylnicotinamide] | – | 20 to 200 | 20 to 200 | – | – |
| C[C@@H](NC(=O)c1cc(-c2ccn3nc(N)nc3c2)cnc1Cl)c1cc(OC(F)(F)F)ccc1F [Example 324, (R)-5-(2-amino-[1,2,4]triazolo[1,5-a]pyridin-7-yl)-2-chloro-N-(1-(2-fluoro-5-(trifluoromethoxy)phenyl)ethyl)nicotinamide] | < 20 | 20 to 200 | – | – | – |
| COc1nc(C)c(-c2ccn3nc(N)nc3c2)cc1C(=O)N(C)[C@H](C)c1cc(OC(F)(F)F)ccc1F [Example 325, (R)-5-(2-amino-[1,2,4]triazolo[1,5-a]pyridin-7-yl)-N-(1-(2-fluoro-5-(trifluoromethoxy)phenyl)ethyl)-2-methoxy-N,6-dimethylnicotinamide] | – | 20 to 200 | 20 to 200 | – | – |
| COc1nc(C)c(-c2ccn3nc(N)nc3c2)cc1C(=O)NCc1cccc(F)c1CN1CCCC1 [Example 326, 5-(2-Amino-[1,2,4]triazolo[1,5-a]pyridin-7-yl)-N-(3-fluoro-2-(pyrrolidin-1-ylmethyl)benzyl)-2-methoxy-6-methylnicotinamide] | – | – | 20 to 200 | > 200 | – |
